In one series the test system is dengue virus type 2. Put plainly: Antiviral activity against Dengue virus 2 DN454009A infected in human HuH7 cells assessed as inhibition of viral RNA level measured 72 hrs post infection by qRT-PCR method. As to conditions: Huh-7, 72 h. Type of series: functional, organism-based. Background: In qPCR the cycle at which signal appears reflects the starting amount.

Series [1] can be described thus: Cytotoxicity against human HuH7 cells assessed as reduction in cell viability after 72 hrs by MTS assay. Type of series: cell-based, Huh-7.
Series [2] can be described thus: Selectivity index, ratio of CC50 for human HuH7 cells to EC50 for Dengue virus 2 DN454009A infected in human HuH7 cells. Type of series: toxicity, cell-based, Huh-7. As to conditions: read-out: Ratio CC50/EC50.
The subject of the next series is dengue virus type 1. Put plainly: Antiviral activity against Dengue virus 1 DN8700828 infected in human HuH7 cells assessed as inhibition of viral RNA level measured 72 hrs post infection by qRT-PCR method. Type of series: functional, organism-based. As to conditions: DN8700828, Huh-7, 72 h.
Another series has as its system dengue virus type 3. Put plainly: Antiviral activity against Dengue virus 3 DN8700829A infected in human HuH7 cells assessed as inhibition of viral RNA level measured 72 hrs post infection by qRT-PCR method. Type of series: functional, organism-based. As to conditions: Huh-7, 72 h.
For the next series, the system named is dengue virus type 4. The series can be described thus: Antiviral activity against Dengue virus 4 S9201818 infected in human HuH7 cells assessed as inhibition of viral RNA level measured 72 hrs post infection by qRT-PCR method. Type of series: functional, organism-based. As to conditions: S9201818, Huh-7, 72 h.

With `CC(C)(O)CC[C@@H](O)[C@](C)(O)[C@H]1CC[C@@]2(O)C3=CC(=O)[C@@H]4C[C@@H](O)CC[C@]4(C)[C@H]3CC[C@]12C`, in the series on dengue virus type 2, the EC50 is over 100 µM. Besides, in series [1], the CC50 at 72 h is over 700 µM.

As for `CC(=O)O[C@@H]1C[C@H]2C(=O)C=C3[C@H](CC[C@]4(C)[C@@H]([C@@](C)(O)[C@H](O)CCC(C)(C)O)CC[C@@]34O)[C@@]2(C)C[C@@H]1O`, the selectivity ratio in series [2] was over 8. The EC50 with dengue virus type 2 came to 87.3 µM. Also, the CC50 at 72 h in series [1] was over 700 µM.

Consider `CC(C)CC[C@@H](O)[C@](C)(O)[C@H]1CC[C@@]2(O)C3=CC(=O)[C@@H]4C[C@@H](O)[C@@H](O)C[C@]4(C)[C@H]3[C@H](O)C[C@]12C`, for which the EC50 with dengue virus type 1 was 15.7 µM; in the series on dengue virus type 2, 10.1 µM; in the series on dengue virus type 3, 9.48 µM; with dengue virus type 4, 12.2 µM. Moreover, the selectivity ratio in series [2] was over 69.7. Further, in series [1], the CC50 at 72 h is over 700 µM.

For `CC(=O)OC(C)(C)CC[C@@H](O)[C@](C)(O)[C@H]1CC[C@@]2(O)C3=CC(=O)[C@@H]4C[C@@H](O)[C@@H](O)C[C@]4(C)[C@H]3CC[C@]12C`, in series [2], the selectivity ratio was over 17.6. Further, the EC50 in the series on dengue virus type 2 is 39.8 µM. In addition, the CC50 at 72 h in series [1] is over 700 µM.

Regarding `CC(=O)OC(C)(C)CC[C@@H](O)[C@](C)(O)[C@H]1CC[C@@]2(O)C3=CC(=O)[C@@H]4C[C@@H](O)[C@@H](O)C[C@]4(C)[C@H]3[C@H](O)C[C@]12C`, the selectivity ratio in series [2] is over 36.7. In addition, the EC50 with dengue virus type 2 worked out at 19.6 µM. Also, in series [1], the CC50 at 72 h was over 700 µM.

With `C=C(C[C@@H](O)[C@](C)(O)[C@H]1CC[C@@]2(O)C3=CC(=O)[C@@H]4C[C@@H](O)[C@@H](O)C[C@]4(C)[C@H]3CC[C@]12C)C(C)(C)O`, the EC50 in the series with dengue virus type 2 is over 100 µM. The CC50 at 72 h in series [1] was over 700 µM.

Take `C[C@H](O)[C@H]1CC[C@@]2(O)C3=CC(=O)[C@@H]4C[C@@H](O)[C@@H](O)C[C@]4(C)[C@H]3CC[C@]12C`: the EC50 in the series on dengue virus type 2 is over 100 µM. In series [1], the CC50 at 72 h is over 700 µM.

Consider `C[C@@]1(O)[C@H](O)[C@@H](CO)O[C@H]1n1ccc(N)nc1=O`, for which, in series [2], the selectivity ratio is over 8.5. The EC50 in the series on dengue virus type 2 was 11.2 µM. In series [1], the 50% cytotoxic concentration (CC50) at 72 h turned out to be 94.8 µM.

For the compound `CC(C)(O)CC[C@@H](O)[C@](C)(O)[C@H]1CC[C@@]2(O)C3=CC(=O)[C@@H]4C[C@@H](O)[C@@H](O)C[C@]4(C)[C@H]3CC[C@]12C` [20-HYDROXYECDYSONE], the selectivity ratio in series [2] is over 13.1. For the same compound, in the series with dengue virus type 2, the EC50 is 53.6 µM. The CC50 at 72 h in series [1] is over 700 µM.

For `C[C@H]([C@H](O)CCC(C)(C)O)[C@H]1CC[C@@]2(O)C3=CC(=O)[C@@H]4C[C@@H](O)[C@@H](O)C[C@]4(C)[C@H]3CC[C@]12C` [ECDYSONE], in series [2], the selectivity ratio was over 12.9. The EC50 in the series on dengue virus type 2 was found to be 54.3 µM. Moreover, the CC50 at 72 h in series [1] is over 700 µM.

On to `CC(CO)CC[C@@H](O)[C@](C)(O)[C@H]1CC[C@@]2(O)C3=CC(=O)[C@@H]4C[C@@H](O)[C@@H](O)C[C@]4(C)[C@H]3CC[C@]12C` (some centres not stated) [INOKOSTERONE], for which the EC50 with dengue virus type 2 is over 100 µM. Moreover, in series [1], the CC50 at 72 h is over 700 µM.

Turning to `CC(C)CC[C@@H](O)[C@](C)(O)[C@H]1CC[C@@]2(O)C3=CC(=O)[C@@H]4C[C@@H](O)[C@@H](O)C[C@]4(C)[C@H]3CC[C@]12C` [PONASTERONE A], the EC50 in the series with dengue virus type 2 is over 100 µM. Moreover, the CC50 at 72 h in series [1] was over 700 µM.

Take `CC(C)(O)CC[C@@H](O)[C@](C)(O)[C@H]1CC[C@@]2(O)C3=CC(=O)[C@@H]4C[C@@H](O)[C@@H](O)C[C@]4(C)[C@H]3[C@H](O)C[C@]12C` [TURKESTERONE]: the selectivity ratio in series [2] was over 18.3. Further, the EC50 in the series on dengue virus type 2 was 38.1 µM. For the same compound, in series [1], the CC50 at 72 h is over 700 µM.

In general, EC50 refers to the concentration that produces a half-maximal response. In general, CC50 refers to the concentration giving 50% cytotoxicity.

The values are drawn from ChEMBL document CHEMBL3792388, “Ecdysones from Zoanthus spp. with inhibitory activity against dengue virus 2” (Bioorg Med Chem Lett, 2016).
